System: Jurkat T-cells
Experiment: CRMP2 polarization in Jurkat cells adhering to collagen I-coated slides (immunofluorescence)
Format: cell-based
Method: The CRMP2 forms, Yes kinase and intermediary filament vimentin were detected by indirect immunofluorescence on Jurkat and primary T-cells adhered to collagen I-coated slides (20 μg/ml) and fixed following treatment (acetone −20° C.; 10 min). Cells were incubated with specific antibody (1 h, 37° C.) then with Alexa 488- or 546-conjugated anti-mouse or anti-rabbit or anti-sheep IgG antibodies (1 h, 37° C.) and examined using the Axioplan II fluorescence microscope (Carl Zeiss). Nuclear counter-staining was performed using a fluorescent DNA intercalant, 4′, 6′-diamidino-2-phenylindole (DAPI, Boehringer Mannheim).
To define a link between chemokines and CRMP2, the inventors first examined the localization of CRMP2 in Jurkat T-cells under CXCL12 signaling. They used two different anti-CRMP2 antibodies (anti-C-ter and anti-pep4) that recognize the full-length and cleaved products of CRMP2. […] This phenomenon of CRMP2 polarization was still observed after 30 minutes of treatment. […] In addition CRMP2 distribution to the uropod was concomitant with the re-localization of vimentin, which was quickly redistributed at the trailing edge of polarizing T-cells.

Compound	decrease of CXCL12-induced CRMP2 re-localization (Jurkat cells treated with CXCL12 (100 ng/mL) in the presence of AMD3100) [%]	increase of cells with polarized (asymmetrical) CRMP2 distribution (CXCL12 100 ng/mL, 2, 5 or 10 min, versus un-treated Jurkat T-cells) [fold]
c1cc(CN2CCCNCCNCCCNCC2)ccc1CN1CCCNCCNCCCNCC1 [AMD3100]	35	
CXCL12: chemokine, stromal-derived-factor-1, ligand of the CXCR4 receptor		1.6 to 2

Reference: US20120135009A1, “Cleaved and Phosphorylated CRMP2 as Blood Marker of Inflammatory Diseases of the Central Nervous System” (priority 2009, published 2012)
